In US6103888A, “Mammalian cationic proteins having lipopolysaccharide binding and anti-coagulant activity” (priority 1999, dated 2000):
Read-outs that look alike come from different tables or passages of the source.

What was measured:
prothrombin (factor II) = prothrombin (factor II) (Homo sapiens, UniProt P00734); assay: Prothrombin activation by Echis Carinatus venom (ECV); type: biochemical
Description: Prothrombin activation by Echis Carinatus venom (ECV). A reaction mixture of prothrombin (factor II) (0.1 unit/ml, 200 μl), ECV (1 unit/ml, 200 μl), various concentration of peptide (70 μl), 50 μl of 25 mM-CaCl2 and 180 μl of Tris buffer was incubated at 37° C. for 10 min. To 300 μl of the reaction mixture, 60 μl of 4 mM-thrombin substrate and 240 μl of buffer was added and further incubated for 15 min.

RAW 264.7 cells = assay: LPS- or IFNγ-induced reactive nitrogen intermediate (RNI) production, Griess nitrite assay; type: cell-based, murine
Description: From the sequence of the CAP18 cDNA, it was apparent that the putative N-terminal peptide of CAP18 was in fact an internal fragment of the CAP18 protein. We therefore tried to reconfirm the original protein sequence. Neutrophil-derived heparin bound cationic proteins were prepared as described above and applied to a C18 reverse phase HPLC (FIG. 1). We sequenced the major peaks. Peaks at fractions 14.5 and 15.2 correspond to defensins MCP1 and MCP2 (Territo et al. (1989) J. Clin. Invest. 84:2017-2019), respectively. Fraction 25.8 is macrophage related protein 14 (MRP14) (Odink et al. (1987) Nature 330:80-82). The fraction at 20.3 minutes corresponds to a fragment of CAP18 of approximately 4-5 kD. […] The murine macrophage cell line RAW 264.7 (obtained from ATCC) and thioglycollate-elicited murine peritoneal exudate cells are used to produce RNI. Cells are cultured at 1×10^6 /ml. in RPMI-1640 +2.5% FCS in 24 well plates in the presence or absence of different concentrations of LPS or murine rlFNγ. After 24 hr. incubation at 37° C., the cell free supernatant is collected and tested for the presence of RNI. Accumulation of nitrite in the medium is measured by a calorimetric assay based on the Griess reaction (Green et al. (1982) Anal. Biochem. 126:11) using sodium nitrite as standards. Sample (50 μl) is mixed with 50 μl of Griess reagent (1% sulfanilamide, 0.1% naphthalene diamine dihydrochloride, 2.5% H3 PO4) and after 10 min. at room temperature absorbance is read at 570 nm.

[1] = system: Salmonella minnesota ReLPS sensitized sheep erythrocytes; assay: LPS hemagglutination assay (MAC); type: binding
Description: (§1) For hemagglutination assays, erythrocytes were sensitized with LPS as follows. One ml of 1% erythrocyte suspension (human 0 type, C3H/HeN mouse or sheep) was mixed with 0.2 ml of LPS solution and incubated at 37° C. for 30 min, followed by washing with phosphate buffered saline (PBS), and then the concentration of suspension was adjusted to 1.0%. In the case of S-LPS, the solution was heated at 100° C. for 1 hour before sensitization of erythrocytes. […] Activity of CAP was expressed as a minimum agglutinating concentration (MAC) of CAP. According to the method of Kirikae et al. (1986) Microbiol. Immunol. 30:269-274, 50 μl of 2-fold serial dilution of Re-LPS was added to 50 μl of 1.0% rabbit erythrocyte suspension, and incubated at 37° C. for 3 hour. Minimum agglutinating concentration of Re-LPS was expressed as 1 HA unit.

Human plasma [2] = assay: Prothrombin time (PT); type: biochemical
Description: Prothrombin time (PT). Human plasma (100 μl) was incubated with 100 μl of each peptide at 37° C. for 3 min., then 100 μl of tissue factor (250 μg/ml) CaCl2 was added and clotting time was measured.

factor Xa = biological target: T1, factor Xa (Homo sapiens, UniProt P00742); assay: Direct Xa inhibition using Xa substrate S2222; type: biochemical; settings: concentrations over 10 μg/ml
T1 construct: purchased Sigma Chemical Co., St. Louis, Mo
Description: Clotting method: Human plasma (Ortho plasma control, Ortho Diagnostic Co.). ATPP reagent(Organo-technika, Tokyo, Japan). Standard tissue factor, rabbit brain thromboplastin (Simplastin, ONO Pharmaceutical, Tokyo, Japan). Purified human factor VII, factor X, factor Xa (Sigma Chemical Co., St. Louis, Mo.). Russell Viper venom (RVV) and Echis Carinatus venom (ECV, Sigma Co.).
Synthetic chromogenic substrate method: Substrate for factor Xa, S2222 (Kabi, Bz-Ile-Glu-Arg-pNA) was used. Substrate for factor II (prothrombin), Boc-Val-Pro-Arg-pNA (Sigma Chemical Co.) was used.

factor X = biological target: T2, factor X (Homo sapiens, UniProt P00742); assay: Factor X activation by tissue factor and factor VII, synthetic substrate S-2222; type: biochemical
T2 construct: purchased Sigma Chemical Co., St. Louis, Mo
Description: Factor Xa activity using synthetic substrate. A reaction mixture of factor VII (1 unit/ml, 200 μl), factor X (1 unit/ml, 200 μl), tissue factor (2.5 mg/ml, 50 μl), 25 mM-CaCl2 (50 μl) and 50 μl of several concentration of peptide was incubated at 37° C. for 10 min. To 200 Al of the reaction mixture, 60 μl of 4 mM S-2222, a synthetic substrate for factor Xa, and 340 μl of Tris-HCl buffer, pH 8.2, was added and further incubated for 15 min. The reaction was stopped by adding 60 μl of 50% acetic acid, and OD for p-nitroaniline was read at 405 nm.

[3] = system: thioglycollate-stimulated murine peritoneal macrophages; assay: LPS-induced tissue factor generation by macrophages (clotting assay); type: cell-based; settings: peptides 1 μg/ml incubated with S. minnesota smooth LPS 5 minutes; 6 hr
Description: Tissue factor assay. Salmonella minnesota smooth LPS was incubated with each peptide (1 μg/ml) for 5 min., then the mixture was added to peritoneal murine macrophages obtained 4 days after thioglycollate stimulation. Cells were cultured for 6 hours prior to assay of tissue factor by clotting assay.
Various concentrations of Salmonella minnesota smooth LPS were incubated with each peptide (197 (RNIP), 36-1, 32-1, and 50-2) at 37° C. for 5 minutes prior to mixing with thioglycollate-stimulated murine peritoneal macrophages. Production of tissue factor after 6 hr. was measured by clotting assay. […] In the absence of LPS no tissue factor is synthesized by these cells.

[4] = system: Pseudomonas aeruginosa F-D Type I LPS; assay: Inhibition of RNIP-mediated hemagglutination by LPS preparation; type: binding; settings: Peptide #36-1 16 μg/ml, RNIP (#197) 25 μg/ml preincubated with LPS 37° 30 minutes
Description: as §1
(§2) Another series of experiments was performed to determine if the #36-1 and #197 (RNIP) peptides were capable of binding to LPS from various species of Gram-negative bacteria. For these experiments, sheep red blood cells were sensitized with Salmonella minnesota Re-LPS. Peptides #36-1 and #197 (RNIP) were preincubated with various preparations of LPS. Both peptides bind to a diverse group of lipopolysaccharides.
(§3) +Peptide #361 (16 μg/ml) and RNIP (#197) (25 μg/ml) were
(§4) preincubated with each LPS preparation at 37° for 30 minutes, and
(§5) each reaction mixture was added to sheep erythrocytes sensitized with […]

E. coli 0111:B4 LPS = assay: as above; type: binding; settings: Peptide #36-1 16 μg/ml, RNIP (#197) 25 μg/ml preincubated with LPS 37° 30 minutes
Description: as §1, §2, §3, §4, §5

E. coli 055:B5 LPS = assay: as above; type: binding; settings: Peptide #36-1 16 μg/ml, RNIP (#197) 25 μg/ml preincubated with LPS 37° 30 minutes
Description: as §1, §2, §3, §4, §5

[5] = system: Salmonella minnesota R595 LPS; assay: as above; type: binding; settings: Peptide #36-1 16 μg/ml, RNIP (#197) 25 μg/ml preincubated with LPS 37° 30 minutes
Description: as §1, §2, §3, §4, §5

E. coli 0127:B8 LPS = assay: as above; type: binding; settings: Peptide #36-1 16 μg/ml, RNIP (#197) 25 μg/ml preincubated with LPS 37° 30 minutes
Description: as §1, §2, §3, §4, §5

[6] = system: Klebsiella pneumoniae LPS; assay: as above; type: binding; settings: Peptide #36-1 16 μg/ml, RNIP (#197) 25 μg/ml preincubated with LPS 37° 30 minutes
Description: as §1, §2, §3, §4, §5

E. coli J5 LPS = assay: as above; type: binding; settings: Peptide #36-1 16 μg/ml, RNIP (#197) 25 μg/ml preincubated with LPS 37° 30 minutes
Description: as §1, §2, §3, §4, §5

Human plasma [7] = assay: Partial thromboplastin time (PTT); type: biochemical; settings: dose dependent
Description: Partial thromboplastin time (PTT). Human plasma (100 μl) was incubated with each peptide (100 μl) at 37° C. for 3 min., then 100 μl of CaCl2 containing phospholipid was added and clotting time was measured.

coagulation = assay: Anti-coagulant activity of human RNIP (preliminary studies); type: biochemical

T2 sequence (P00742 183-488): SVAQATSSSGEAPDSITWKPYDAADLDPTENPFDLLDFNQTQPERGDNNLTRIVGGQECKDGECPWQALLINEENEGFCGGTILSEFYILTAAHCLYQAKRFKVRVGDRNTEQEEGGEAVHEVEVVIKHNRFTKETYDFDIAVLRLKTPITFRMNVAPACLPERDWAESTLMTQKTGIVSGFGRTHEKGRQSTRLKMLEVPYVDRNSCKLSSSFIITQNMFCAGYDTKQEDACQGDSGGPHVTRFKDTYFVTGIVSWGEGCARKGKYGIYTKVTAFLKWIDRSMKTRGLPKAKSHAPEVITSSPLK
T2 sequence (P00742 41-179): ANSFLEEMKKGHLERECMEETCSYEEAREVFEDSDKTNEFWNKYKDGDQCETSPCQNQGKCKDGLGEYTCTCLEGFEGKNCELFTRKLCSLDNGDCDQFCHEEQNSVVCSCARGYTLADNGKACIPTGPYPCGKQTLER
T1 sequence (P00742 235-488 limits assumed): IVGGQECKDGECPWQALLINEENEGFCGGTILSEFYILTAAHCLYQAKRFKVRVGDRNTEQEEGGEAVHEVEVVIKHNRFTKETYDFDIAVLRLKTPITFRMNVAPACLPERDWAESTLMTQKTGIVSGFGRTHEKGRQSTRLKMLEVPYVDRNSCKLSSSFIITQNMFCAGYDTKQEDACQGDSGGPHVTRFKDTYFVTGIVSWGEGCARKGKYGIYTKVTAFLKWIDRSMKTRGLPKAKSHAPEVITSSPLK
T1 sequence (P00742 41-179 limits assumed): as the sequence (P00742 41-179) above

Substance | inhibition of Echis carinatus venom activation of purified factor II to IIa (in words) (prothrombin (factor II)) | concentrations at which peptides are active in the bioassay (RAW 264.7 cells; day-to-day variation in the bioassay) | inhibition of LPS-induced RNI production (in words) (RAW 264.7 cells; macrophages / RAW 264.7 cells) | Hemagglutination [MAC], minimum agglutinating concentration [1] | inhibition of the prothrombin time (PT), in words (Human plasma [2]) | direct Xa inhibition (in words) (factor Xa) | IC50, Tissue factor VII, X to Xa (factor X; synthetic substrate) | IC50 (factor X; text value for both peptides, read-out: IC50, factor X activated by tissue factor and purified factor VII) | inhibition of LPS induced tissue factor (in words) [3] | MIC, minimal inhibitory concentration of LPS [4] | MIC, minimal inhibitory concentration of LPS (E. coli 0111:B4 LPS) | MIC, minimal inhibitory concentration of LPS (E. coli 055:B5 LPS) | MIC, minimal inhibitory concentration of LPS [5] | MIC, minimal inhibitory concentration of LPS (E. coli 0127:B8 LPS) | MIC, minimal inhibitory concentration of LPS [6] | MIC, minimal inhibitory concentration of LPS (E. coli J5 LPS) | inhibition of the partial thromboplastin time (PTT), in words (Human plasma [7]) | anti-coagulant activity (in words) (coagulation) | anti-coagulant activity (in words) (coagulation; listed as Human RNIP)
36-1: synthetic rabbit RNIP fragment, amino acids 135-166 of SEQ ID NO:4 (GLRKRLRKFRNKIKEKLKKIGQKIQGLLPKLA) [Peptide 36-1] | inhibited | 10 to 50 nM | active | 3.9 µg/mL | inhibited | No evidence of direct Xa inhibition | 0.3 to 0.7 µg/mL | 40 to 100 nM | inhibition | 3.9 µg/mL | 15.6 µg/mL | 15.6 µg/mL | 15.6 µg/mL | 15.6 µg/mL | 31.3 µg/mL | 7.8 µg/mL | inhibited |  | 
human RNIP: synthetic polypeptide comprising amino acids 134 to 170 of SEQ ID NO:2 (LLGDFFRKSKEKIGKEFKRIVQRIKDFLRNLVPRTES) |  |  |  |  |  |  |  |  |  |  |  |  |  |  |  |  |  | lacks significant anti-coagulant activity | free from anti-coagulant activity
